Measured values taken from PubChem BioAssay AID330 (DTP/NCI, 2004).
Values joined by “and” are separate entries in the source; they are usually repeats but may differ in a detail not shown here. Equal entries are not always repeated. Toxic doses and inconclusive results are not listed. How the source made its calls: active means survival T/C of 150% or more; inactive means T/C below 125% in these data.

Tested on: P388 leukemia ip, CD2F1 mice, survival T/C
Assay: NCI In Vivo Anticancer Drug Screen. Data for tumor model P388 Leukemia (intraperitoneal) in CD2F1 (CDF1) mice
Conditions: endpoint: median survival time, higher = longer survival
Outline: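 Mice carrying the transplanted tumor received test compound or vehicle. Survival was recorded in each group, and the value is the treated-group measurement divided by that of the vehicle-treated control group.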

[1] = dose: 60.0 mg/kg/injection, schedule: Q01DX005 (ip), vehicle: saline with Tween-80
[2] = dose: 120.0 mg/kg/injection, schedule: Q01DX005 (ip), vehicle: saline with Tween-80
[3] = dose: 240.0 mg/kg/injection, schedule: Q01DX005 (ip), vehicle: saline with Tween-80
[4] = dose: 50.0 mg/kg/injection, schedule: Q01DX009 (ip), vehicle: saline
[5] = dose: 100.0 mg/kg/injection, schedule: Q01DX009 (ip), vehicle: saline
[6] = dose: 200.0 mg/kg/injection, schedule: Q01DX009 (ip), vehicle: saline
[7] = dose: 100.0 mg/kg/injection, schedule: Q01DX009 (ip), vehicle: saline with Tween-80
[8] = dose: 200.0 mg/kg/injection, schedule: Q01DX009 (ip), vehicle: saline with Tween-80

Measured: T/C

CN(C)CCCN1c2ccccc2Oc2ccc(Cl)cc21
inactive: dose: 50.0 mg/kg/injection, schedule: Q01DX005 (ip), vehicle: saline 105 % of control | dose: 100.0 mg/kg/injection, schedule: Q01DX005 (ip), vehicle: saline 106 % of control

CCOC(=O)NNC(=O)Nc1ccc(O[Si](C)(C)C)cc1
inactive: [1] 109 % of control | [2] 102 % of control | [3] 100 % of control

O=C1CCC(C(=O)N/N=C\C=N/NC(=O)C2CCC(=O)N2)N1 (centres undefined)
inactive: dose: 5.0 mg/kg/injection, schedule: Q01DX009 (ip), vehicle: saline with Tween-80 101 % of control | dose: 10.0 mg/kg/injection, schedule: Q01DX009 (ip), vehicle: saline with Tween-80 103 % of control | dose: 20.0 mg/kg/injection, schedule: Q01DX009 (ip), vehicle: saline with Tween-80 103 % of control

CCC(C)(C)N=C(Nc1cccnc1)Nc1nccs1
inactive: dose: 100.0 mg/kg/injection, schedule: Q04DX003 (ip), vehicle: saline with Tween-80 92 % of control | dose: 200.0 mg/kg/injection, schedule: Q04DX003 (ip), vehicle: saline with Tween-80 94 % of control | dose: 400.0 mg/kg/injection, schedule: Q04DX003 (ip), vehicle: saline with Tween-80 87 % of control

C/C=C1/CN2C3C[C@@]45c6cc(OC)c(OC)cc6NC4(O3)C2CC1C5C(=O)OC (some centres undefined)
inactive: dose: 5.25 mg/kg/injection, schedule: Q01DX005 (ip), vehicle: Klucel (hydroxypropylcellulose) (HPC) 102 % of control | dose: 10.5 mg/kg/injection, schedule: Q01DX005 (ip), vehicle: Klucel (hydroxypropylcellulose) (HPC) 102 % of control | dose: 21.0 mg/kg/injection, schedule: Q01DX005 (ip), vehicle: Klucel (hydroxypropylcellulose) (HPC) 98 % of control | dose: 42.0 mg/kg/injection, schedule: Q01DX005 (ip), vehicle: Klucel (hydroxypropylcellulose) (HPC) 99 % of control

CCN(CC)CCOC(=O)/C=C\c1cccc2c(=O)cc(-c3ccccc3)oc12
inactive: [4] 100 % of control | [5] 101 % of control | [6] 117 % of control

O=C(NO)C(O)C(O)C(O)CO (centres undefined)
inactive: [4] 101 % of control | [5] 104 % of control | [6] 104 % of control

CCOC(=O)C1=C(O)C(C)(c2ccc(O)cc2O)N=C1c1ccccc1 (centres undefined)
inactive: dose: 50.0 mg/kg/injection, schedule: Q01DX005 (ip), vehicle: Klucel (hydroxypropylcellulose) (HPC) 95 % of control | dose: 100.0 mg/kg/injection, schedule: Q01DX005 (ip), vehicle: Klucel (hydroxypropylcellulose) (HPC) 96 % of control | dose: 200.0 mg/kg/injection, schedule: Q01DX005 (ip), vehicle: Klucel (hydroxypropylcellulose) (HPC) 89 % of control

c1ccc(Cc2cc(-c3cc(Cc4ccccc4)[nH]n3)n[nH]2)cc1
inactive: dose: 60.0 mg/kg/injection, schedule: Q01DX005 (ip), vehicle: Klucel + Tween-80 101 % of control | dose: 120.0 mg/kg/injection, schedule: Q01DX005 (ip), vehicle: Klucel + Tween-80 106 % of control | dose: 240.0 mg/kg/injection, schedule: Q01DX005 (ip), vehicle: Klucel + Tween-80 107 % of control

C#CCN1C(=O)N(CC#C)C(=O)C(CC#C)(C(CC=C)c2ccccc2)C1=O (centres undefined)
inactive: [1] 100 % of control | [2] 100 % of control | [3] 96 % of control

N#CNc1nnnn1-c1ccccc1 (tested in a mixture with another compound)
inactive: dose: 100.0 mg/kg/injection, schedule: Q04DX003 (ip), vehicle: Klucel (hydroxypropylcellulose) (HPC) 96 % of control | dose: 200.0 mg/kg/injection, schedule: Q04DX003 (ip), vehicle: Klucel (hydroxypropylcellulose) (HPC) 92 % of control | dose: 400.0 mg/kg/injection, schedule: Q04DX003 (ip), vehicle: Klucel (hydroxypropylcellulose) (HPC) 98 % of control

O=C(OCC12OC1C(=O)C1OC1C2O)c1ccccc1 (centres undefined)
inactive: dose: 1.88 mg/kg/injection, schedule: Q04DX002 (ip), vehicle: saline with Tween-80 104 % of control | dose: 3.75 mg/kg/injection, schedule: Q04DX002 (ip), vehicle: saline with Tween-80 105 % of control | dose: 7.5 mg/kg/injection, schedule: Q04DX002 (ip), vehicle: saline with Tween-80 101 % of control

CCC/C(=N\O)C(O)(CCC)CCC
inactive: dose: 50.0 mg/kg/injection, schedule: Q01DX009 (ip), vehicle: saline with Tween-80 89 % of control | [7] 89 % of control | [8] 89 % of control

CC/C(=N/NS(=O)(=O)c1ccc(C)cc1)c1ccc(C)c(C)c1
inactive: [4] 98 % of control | [5] 90 % of control | [6] 104 % of control

COc1ccc2sc3c(C)ccc(NCCC4CCCN5CCCCC45)c3c(=O)c2c1 (centres undefined)
inactive: dose: 100.0 mg/kg/injection, schedule: Q01DX001 (ip), vehicle: saline with Tween-80 87 % of control | dose: 200.0 mg/kg/injection, schedule: Q01DX001 (ip), vehicle: saline with Tween-80 87 % of control

O=C1OC(=O)C2C3C=CC(C4C=C(C5CC5)C43)C12 (centres undefined)
inactive: dose: 100.0 mg/kg/injection, schedule: Q04DX003 (ip), vehicle: saline 102 % of control | dose: 200.0 mg/kg/injection, schedule: Q04DX003 (ip), vehicle: saline 107 % of control | dose: 400.0 mg/kg/injection, schedule: Q04DX003 (ip), vehicle: saline 111 % of control

C=C(C)C(=O)OCCO (tested in a mixture with another compound)
inactive: [7] 100 % of control | [8] 100 % of control | dose: 400.0 mg/kg/injection, schedule: Q01DX009 (ip), vehicle: saline with Tween-80 100 % of control

CNC(=S)NNc1ccc(C)cc1
inactive: dose: 12.5 mg/kg/injection, schedule: Q01DX009 (ip), vehicle: other 87 % of control | dose: 25.0 mg/kg/injection, schedule: Q01DX009 (ip), vehicle: other 90 % of control | dose: 100.0 mg/kg/injection, schedule: Q01DX009 (ip), vehicle: other 92 % of control | dose: 200.0 mg/kg/injection, schedule: Q01DX009 (ip), vehicle: other 101 % of control

COc1ccc(Cl)[n+]([O-])n1
inactive: dose: 6.25 mg/kg/injection, schedule: Q04DX002 (ip), vehicle: Klucel (hydroxypropylcellulose) (HPC) 111 % of control | dose: 12.5 mg/kg/injection, schedule: Q04DX002 (ip), vehicle: Klucel (hydroxypropylcellulose) (HPC) 122 % of control | dose: 25.0 mg/kg/injection, schedule: Q04DX002 (ip), vehicle: Klucel (hydroxypropylcellulose) (HPC) 120 % of control | dose: 25.0 mg/kg/injection, schedule: Q04DX002 (ip), vehicle: saline 104 % of control | dose: 50.0 mg/kg/injection, schedule: Q04DX002 (ip), vehicle: Klucel (hydroxypropylcellulose) (HPC) 117 % of control | dose: 50.0 mg/kg/injection, schedule: Q04DX002 (ip), vehicle: saline 122 % of control | dose: 100.0 mg/kg/injection, schedule: Q04DX002 (ip), vehicle: saline 106 % of control

Cc1ccn2cc(CC(=O)O)nc2c1
inactive: dose: 100.0 mg/kg/injection, schedule: Q01DX001 (ip), vehicle: Klucel (hydroxypropylcellulose) (HPC) 104 % of control | dose: 200.0 mg/kg/injection, schedule: Q01DX001 (ip), vehicle: Klucel (hydroxypropylcellulose) (HPC) 100 % of control | dose: 400.0 mg/kg/injection, schedule: Q01DX001 (ip), vehicle: Klucel (hydroxypropylcellulose) (HPC) 96 % of control

OCc1nc2ccccc2[nH]1
inactive: dose: 25.0 mg/kg/injection, schedule: Q01DX009 (ip), vehicle: Klucel (hydroxypropylcellulose) (HPC) 96 % of control | dose: 50.0 mg/kg/injection, schedule: Q01DX009 (ip), vehicle: Klucel (hydroxypropylcellulose) (HPC) 97 % of control | dose: 100.0 mg/kg/injection, schedule: Q01DX009 (ip), vehicle: Klucel (hydroxypropylcellulose) (HPC) 96 % of control | dose: 200.0 mg/kg/injection, schedule: Q01DX009 (ip), vehicle: Klucel (hydroxypropylcellulose) (HPC) 114 % of control

O=C(Nc1ccc(Cl)c(Cl)c1)Oc1ccccc1Cl
inactive: [1] 106 % of control | [2] 107 % of control | [3] 105 % of control

COc1ccc(C2COc3cc4occc4cc3C2=O)c(OC)c1OC (centres undefined)
inactive: dose: 11.25 mg/kg/injection, schedule: Q01DX005 (ip), vehicle: Klucel (hydroxypropylcellulose) (HPC) 99 % of control | dose: 22.5 mg/kg/injection, schedule: Q01DX005 (ip), vehicle: Klucel (hydroxypropylcellulose) (HPC) 97 % of control | dose: 45.0 mg/kg/injection, schedule: Q01DX005 (ip), vehicle: Klucel (hydroxypropylcellulose) (HPC) 95 % of control | dose: 90.0 mg/kg/injection, schedule: Q01DX005 (ip), vehicle: Klucel (hydroxypropylcellulose) (HPC) 97 % of control | dose: 180.0 mg/kg/injection, schedule: Q01DX005 (ip), vehicle: Klucel (hydroxypropylcellulose) (HPC) 99 % of control

Cc1cc(OCCCC[N+](C)(C)Cc2ccc(Br)o2)c(C(C)C)cc1Cl
inactive: dose: 1.56 mg/kg/injection, schedule: Q01DX009 (ip), vehicle: saline 91 % of control | dose: 3.13 mg/kg/injection, schedule: Q01DX009 (ip), vehicle: saline 100 % of control | dose: 6.25 mg/kg/injection, schedule: Q01DX009 (ip), vehicle: saline 103 % of control and 105 % of control
